Test results published in ChEMBL document CHEMBL1909046, “DrugMatrix in vitro pharmacology data”.

biological target: Delta-type opioid receptor (Homo sapiens, UniProt P41143); assay type: cell membranes, HEK293, Membrane; conditions: hek293; note: in other assays of this panel Not Active means under 50% inhibition at 10 µM
Sequence (P41143 whole entry): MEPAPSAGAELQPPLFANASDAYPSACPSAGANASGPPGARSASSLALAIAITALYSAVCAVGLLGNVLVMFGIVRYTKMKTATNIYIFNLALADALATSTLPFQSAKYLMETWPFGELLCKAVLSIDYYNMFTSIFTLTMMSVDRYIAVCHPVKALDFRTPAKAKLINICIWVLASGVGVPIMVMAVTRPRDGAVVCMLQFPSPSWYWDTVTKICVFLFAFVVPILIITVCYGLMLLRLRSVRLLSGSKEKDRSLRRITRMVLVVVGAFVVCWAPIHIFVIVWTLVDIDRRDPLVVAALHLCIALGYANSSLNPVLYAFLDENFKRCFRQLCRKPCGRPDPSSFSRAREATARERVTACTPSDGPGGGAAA

Compound | IC50
Cc1ccc(N(CC2=NCCN2)c2cccc(O)c2)cc1 [PHENTOLAMINE] | Not Active
CC(C)(Oc1ccc(Cl)cc1)C(=O)O [CLOFIBRIC ACID] | Not Active
CC1(C)O[C@@H]2C[C@H]3[C@@H]4CCC5=CC(=O)CC[C@]5(C)[C@@]4(F)[C@@H](O)C[C@]3(C)[C@]2(C(=O)CCl)O1 [HALCINONIDE] | Not Active
NC(=O)N1c2ccccc2CCc2ccccc21 | Not Active
CC(C)C(Br)C(=O)NC(N)=O (stereo not given) [BROMISOVALUM] | Not Active
CCCCc1nc(Cl)c(CO)n1Cc1ccc(-c2ccccc2-c2nnn[nH]2)cc1 [LOSARTAN] | Not Active

biological target: T1, C-X-C chemokine receptor type 1 (Homo sapiens, UniProt P25024); conditions: not given; note: in other assays of this panel Not Active means under 50% inhibition at 10 µM
T1 sequence (P25024 whole entry): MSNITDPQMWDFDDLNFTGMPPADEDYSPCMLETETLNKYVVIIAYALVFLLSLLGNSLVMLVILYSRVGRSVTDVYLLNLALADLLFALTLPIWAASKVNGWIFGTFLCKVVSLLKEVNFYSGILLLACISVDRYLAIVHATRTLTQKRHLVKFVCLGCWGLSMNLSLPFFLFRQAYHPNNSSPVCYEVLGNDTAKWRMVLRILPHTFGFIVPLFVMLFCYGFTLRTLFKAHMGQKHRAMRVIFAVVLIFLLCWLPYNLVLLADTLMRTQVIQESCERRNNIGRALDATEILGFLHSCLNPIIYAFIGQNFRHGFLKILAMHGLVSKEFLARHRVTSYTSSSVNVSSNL

Compound | IC50
Cc1ccc(N(CC2=NCCN2)c2cccc(O)c2)cc1 [PHENTOLAMINE] | Not Active
CC(C)(Oc1ccc(Cl)cc1)C(=O)O [CLOFIBRIC ACID] | Not Active
CC1(C)O[C@@H]2C[C@H]3[C@@H]4CCC5=CC(=O)CC[C@]5(C)[C@@]4(F)[C@@H](O)C[C@]3(C)[C@]2(C(=O)CCl)O1 [HALCINONIDE] | Not Active
NC(=O)N1c2ccccc2CCc2ccccc21 | Not Active
CC(C)C(Br)C(=O)NC(N)=O (stereo not given) [BROMISOVALUM] | Not Active
CN(C)CCCN1c2ccccc2Sc2ccc(Cl)cc21 [CHLORPROMAZINE] | Not Active
CCCCc1nc(Cl)c(CO)n1Cc1ccc(-c2ccccc2-c2nnn[nH]2)cc1 [LOSARTAN] | Not Active

biological target: C-C chemokine receptor type 2 (Homo sapiens, UniProt P41597); assay type: cell membranes, CHO-K1, Membrane; conditions: cho-k1; note: in other assays of this panel Not Active means under 50% inhibition at 10 µM
Sequence (P41597 whole entry): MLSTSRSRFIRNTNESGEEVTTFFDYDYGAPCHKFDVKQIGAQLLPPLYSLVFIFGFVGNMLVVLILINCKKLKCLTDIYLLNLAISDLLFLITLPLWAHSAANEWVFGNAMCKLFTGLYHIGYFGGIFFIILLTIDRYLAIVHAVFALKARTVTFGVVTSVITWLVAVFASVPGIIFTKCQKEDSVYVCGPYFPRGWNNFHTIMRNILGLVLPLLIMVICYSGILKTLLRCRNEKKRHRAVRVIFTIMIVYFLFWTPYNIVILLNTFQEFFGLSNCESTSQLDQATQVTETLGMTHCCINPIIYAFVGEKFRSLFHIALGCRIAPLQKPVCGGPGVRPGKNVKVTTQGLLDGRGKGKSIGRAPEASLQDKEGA

Compound | IC50
Cc1ccc(N(CC2=NCCN2)c2cccc(O)c2)cc1 [PHENTOLAMINE] | Not Active
CC(C)(Oc1ccc(Cl)cc1)C(=O)O [CLOFIBRIC ACID] | Not Active
CC1(C)O[C@@H]2C[C@H]3[C@@H]4CCC5=CC(=O)CC[C@]5(C)[C@@]4(F)[C@@H](O)C[C@]3(C)[C@]2(C(=O)CCl)O1 [HALCINONIDE] | Not Active
NC(=O)N1c2ccccc2CCc2ccccc21 | Not Active
CC(C)C(Br)C(=O)NC(N)=O (stereo not given) [BROMISOVALUM] | Not Active
CN(C)CCCN1c2ccccc2Sc2ccc(Cl)cc21 [CHLORPROMAZINE] | Not Active

system: not listed separately; assay: DRUGMATRIX: Tumor Necrosis Factor (TNF), Non-Selective radioligand binding (ligand: [125I] TNF-alpha); assay type: cell membranes, Membrane; conditions: u-937; Not Active = under 50% inhibition at 10 µM

Compound | IC50 | Ki
Cc1ccc(N(CC2=NCCN2)c2cccc(O)c2)cc1 [PHENTOLAMINE] | Not Active | Not Active
CC(C)(Oc1ccc(Cl)cc1)C(=O)O [CLOFIBRIC ACID] | Not Active | Not Active
CC1(C)O[C@@H]2C[C@H]3[C@@H]4CCC5=CC(=O)CC[C@]5(C)[C@@]4(F)[C@@H](O)C[C@]3(C)[C@]2(C(=O)CCl)O1 [HALCINONIDE] | Not Active | Not Active
NC(=O)N1c2ccccc2CCc2ccccc21 | Not Active | Not Active
CC(C)C(Br)C(=O)NC(N)=O (stereo not given) [BROMISOVALUM] | Not Active | Not Active
CN(C)CCCN1c2ccccc2Sc2ccc(Cl)cc21 [CHLORPROMAZINE] | Not Active | Not Active
CCCCc1nc(Cl)c(CO)n1Cc1ccc(-c2ccccc2-c2nnn[nH]2)cc1 [LOSARTAN] | Not Active | Not Active

biological target: T2, Amine oxidase [flavin-containing] A (Homo sapiens, UniProt P21397); assay: DRUGMATRIX: Monoamine Oxidase MAO-A enzyme inhibition (substrate: Kynuramine); set-up: species or system BTI-TN-5B1-4; conditions: bti-tn-5b1-4; Not Active = under 50% inhibition at 10 µM
T2 sequence (P21397 whole entry): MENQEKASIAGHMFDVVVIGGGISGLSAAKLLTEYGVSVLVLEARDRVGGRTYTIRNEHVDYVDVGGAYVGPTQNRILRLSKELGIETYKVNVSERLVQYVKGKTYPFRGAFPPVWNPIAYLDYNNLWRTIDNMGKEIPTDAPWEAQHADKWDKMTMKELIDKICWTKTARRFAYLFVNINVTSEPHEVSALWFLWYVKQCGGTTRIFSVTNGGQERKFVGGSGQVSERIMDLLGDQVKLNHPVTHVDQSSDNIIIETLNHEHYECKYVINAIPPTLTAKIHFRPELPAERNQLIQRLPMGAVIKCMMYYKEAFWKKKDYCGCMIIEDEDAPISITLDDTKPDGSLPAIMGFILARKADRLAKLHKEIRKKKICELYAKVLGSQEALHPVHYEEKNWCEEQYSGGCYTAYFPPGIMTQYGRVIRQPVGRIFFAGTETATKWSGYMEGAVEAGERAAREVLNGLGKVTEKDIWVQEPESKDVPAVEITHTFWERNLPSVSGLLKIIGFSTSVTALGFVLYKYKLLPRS

Compound | IC50
Cc1ccc(N(CC2=NCCN2)c2cccc(O)c2)cc1 [PHENTOLAMINE] | Not Active
CC(C)(Oc1ccc(Cl)cc1)C(=O)O [CLOFIBRIC ACID] | Not Active
CC1(C)O[C@@H]2C[C@H]3[C@@H]4CCC5=CC(=O)CC[C@]5(C)[C@@]4(F)[C@@H](O)C[C@]3(C)[C@]2(C(=O)CCl)O1 [HALCINONIDE] | Not Active
NC(=O)N1c2ccccc2CCc2ccccc21 | Not Active
CC(C)C(Br)C(=O)NC(N)=O (stereo not given) [BROMISOVALUM] | Not Active
CN(C)CCCN1c2ccccc2Sc2ccc(Cl)cc21 [CHLORPROMAZINE] | Not Active
CCCCc1nc(Cl)c(CO)n1Cc1ccc(-c2ccccc2-c2nnn[nH]2)cc1 [LOSARTAN] | Not Active

biological target: T3, Calcitonin receptor (Homo sapiens, UniProt P30988); assay type: cell membranes, Membrane; conditions: t47d; note: in other assays of this panel Not Active means under 50% inhibition at 10 µM
T3 sequence (P30988 whole entry): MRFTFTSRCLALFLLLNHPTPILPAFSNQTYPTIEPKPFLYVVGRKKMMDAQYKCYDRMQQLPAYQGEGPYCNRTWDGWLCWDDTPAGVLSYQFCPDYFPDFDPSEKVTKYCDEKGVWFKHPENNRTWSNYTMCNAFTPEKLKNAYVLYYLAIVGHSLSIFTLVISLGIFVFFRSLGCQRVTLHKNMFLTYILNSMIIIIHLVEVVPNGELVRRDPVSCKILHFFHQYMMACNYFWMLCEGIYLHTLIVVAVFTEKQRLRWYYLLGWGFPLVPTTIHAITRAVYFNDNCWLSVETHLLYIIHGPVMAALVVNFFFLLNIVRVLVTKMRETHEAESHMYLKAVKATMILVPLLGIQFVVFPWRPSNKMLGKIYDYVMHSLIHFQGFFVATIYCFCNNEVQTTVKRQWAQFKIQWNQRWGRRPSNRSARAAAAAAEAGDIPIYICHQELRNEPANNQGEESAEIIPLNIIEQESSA

Compound | IC50
Cc1ccc(N(CC2=NCCN2)c2cccc(O)c2)cc1 [PHENTOLAMINE] | Not Active
CC(C)(Oc1ccc(Cl)cc1)C(=O)O [CLOFIBRIC ACID] | Not Active
CC1(C)O[C@@H]2C[C@H]3[C@@H]4CCC5=CC(=O)CC[C@]5(C)[C@@]4(F)[C@@H](O)C[C@]3(C)[C@]2(C(=O)CCl)O1 [HALCINONIDE] | Not Active
NC(=O)N1c2ccccc2CCc2ccccc21 | Not Active
CC(C)C(Br)C(=O)NC(N)=O (stereo not given) [BROMISOVALUM] | Not Active
CN(C)CCCN1c2ccccc2Sc2ccc(Cl)cc21 [CHLORPROMAZINE] | Not Active
CCCCc1nc(Cl)c(CO)n1Cc1ccc(-c2ccccc2-c2nnn[nH]2)cc1 [LOSARTAN] | Not Active

biological target: Substance-P receptor (Homo sapiens, UniProt P25103); assay type: cell membranes, CHO, Membrane; conditions: cho; note: in other assays of this panel Not Active means under 50% inhibition at 10 µM
Sequence (P25103 whole entry): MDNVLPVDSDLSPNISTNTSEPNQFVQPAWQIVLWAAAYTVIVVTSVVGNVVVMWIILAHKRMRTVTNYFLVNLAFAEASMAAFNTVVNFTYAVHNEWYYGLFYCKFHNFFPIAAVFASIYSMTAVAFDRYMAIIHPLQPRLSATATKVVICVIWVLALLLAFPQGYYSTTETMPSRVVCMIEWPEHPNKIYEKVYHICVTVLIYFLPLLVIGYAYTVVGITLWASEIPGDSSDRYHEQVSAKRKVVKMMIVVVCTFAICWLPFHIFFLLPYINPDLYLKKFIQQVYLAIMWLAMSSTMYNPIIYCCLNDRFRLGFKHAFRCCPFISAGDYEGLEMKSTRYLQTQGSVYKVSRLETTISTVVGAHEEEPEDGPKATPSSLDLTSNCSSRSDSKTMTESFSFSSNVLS

Compound | IC50
Cc1ccc(N(CC2=NCCN2)c2cccc(O)c2)cc1 [PHENTOLAMINE] | Not Active
CC(C)(Oc1ccc(Cl)cc1)C(=O)O [CLOFIBRIC ACID] | Not Active
CC1(C)O[C@@H]2C[C@H]3[C@@H]4CCC5=CC(=O)CC[C@]5(C)[C@@]4(F)[C@@H](O)C[C@]3(C)[C@]2(C(=O)CCl)O1 [HALCINONIDE] | Not Active
NC(=O)N1c2ccccc2CCc2ccccc21 | Not Active
CC(C)C(Br)C(=O)NC(N)=O (stereo not given) [BROMISOVALUM] | Not Active
CN(C)CCCN1c2ccccc2Sc2ccc(Cl)cc21 [CHLORPROMAZINE] | Not Active
CCCCc1nc(Cl)c(CO)n1Cc1ccc(-c2ccccc2-c2nnn[nH]2)cc1 [LOSARTAN] | Not Active

system: not listed separately; assay: DRUGMATRIX: Calcium Channel Type L, Dihydropyridine radioligand binding (ligand: [3H] Nitrendipine); assay type: cell membranes, Rattus norvegicus, Wistar, Cerebral cortex, Membrane; conditions: Not Active = under 50% inhibition at 10 µM

Compound | IC50 | Ki
Cc1ccc(N(CC2=NCCN2)c2cccc(O)c2)cc1 [PHENTOLAMINE] | Not Active | Not Active
CC(C)(Oc1ccc(Cl)cc1)C(=O)O [CLOFIBRIC ACID] | Not Active | Not Active
CC1(C)O[C@@H]2C[C@H]3[C@@H]4CCC5=CC(=O)CC[C@]5(C)[C@@]4(F)[C@@H](O)C[C@]3(C)[C@]2(C(=O)CCl)O1 [HALCINONIDE] | Not Active | Not Active
NC(=O)N1c2ccccc2CCc2ccccc21 | Not Active | Not Active
CC(C)C(Br)C(=O)NC(N)=O (stereo not given) [BROMISOVALUM] | Not Active | Not Active
CN(C)CCCN1c2ccccc2Sc2ccc(Cl)cc21 [CHLORPROMAZINE] | Not Active | Not Active
CCCCc1nc(Cl)c(CO)n1Cc1ccc(-c2ccccc2-c2nnn[nH]2)cc1 [LOSARTAN] | Not Active | Not Active

biological target: Vasopressin V1a receptor (Homo sapiens, UniProt P37288); assay type: cell membranes, Membrane; conditions: hek293; note: in other assays of this panel Not Active means under 50% inhibition at 10 µM
Sequence (P37288 whole entry): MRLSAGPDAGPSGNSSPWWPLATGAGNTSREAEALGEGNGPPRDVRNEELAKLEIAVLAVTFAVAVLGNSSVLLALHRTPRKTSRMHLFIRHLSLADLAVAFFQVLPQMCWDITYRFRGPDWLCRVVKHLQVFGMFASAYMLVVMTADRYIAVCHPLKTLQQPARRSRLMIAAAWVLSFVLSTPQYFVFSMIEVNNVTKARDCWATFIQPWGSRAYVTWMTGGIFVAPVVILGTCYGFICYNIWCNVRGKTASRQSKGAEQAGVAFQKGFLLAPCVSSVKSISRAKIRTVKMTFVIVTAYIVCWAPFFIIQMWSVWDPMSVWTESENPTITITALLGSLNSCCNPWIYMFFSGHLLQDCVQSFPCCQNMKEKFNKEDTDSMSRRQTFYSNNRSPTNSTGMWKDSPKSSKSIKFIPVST

Compound | IC50
Cc1ccc(N(CC2=NCCN2)c2cccc(O)c2)cc1 [PHENTOLAMINE] | Not Active
CC(C)(Oc1ccc(Cl)cc1)C(=O)O [CLOFIBRIC ACID] | Not Active
CC1(C)O[C@@H]2C[C@H]3[C@@H]4CCC5=CC(=O)CC[C@]5(C)[C@@]4(F)[C@@H](O)C[C@]3(C)[C@]2(C(=O)CCl)O1 [HALCINONIDE] | Not Active
NC(=O)N1c2ccccc2CCc2ccccc21 | Not Active
CC(C)C(Br)C(=O)NC(N)=O (stereo not given) [BROMISOVALUM] | Not Active
CN(C)CCCN1c2ccccc2Sc2ccc(Cl)cc21 [CHLORPROMAZINE] | Not Active
CCCCc1nc(Cl)c(CO)n1Cc1ccc(-c2ccccc2-c2nnn[nH]2)cc1 [LOSARTAN] | Not Active
